{"source": "patent US20140335021A1", "about": "“Ocular Neostigmine Drops for Diagnosing Myasthenia Gravis” (priority 2013, published 2014)", "key": {"[1]": {"system": "New Zealand White rabbits", "assay": "Pupillary size after ocular instillation of neostigmine solution in rabbits", "type": "in vivo, rabbit", "settings": "for mean [SD] pupillary size, right eye: saline left eye 7.0 mm, p=0.0001", "description": "(§1) 2) experiments in which the standard IV neostigmine solution was instilled into both eyes of patients with probable or definite symptomatic MG.\n(§2) Both sets of experiments used the standard neostigmine (2.5 mg/ml) solution available in hospitals for anesthetic/surgical use for reversal of neuromuscular block. This solution is buffered and FDA-approved for use in humans. In both sets of experiments, one drop of this solution was used in an eye, limiting substantially the amount of drug that might be absorbed systemically.\nMale New Zealand White rabbits (2.5-3.0 kg body weight) were used in all experiments. The animals were kept in a room of controlled room temperature (24.0+1.0° C.) and humidity and a fixed dark light cycle (light on at 7:00 am and off at 19:00 pm).\nThe sterile neostigmine solution (2.5 mg/ml) was instilled into the right eye (one drop), while the control eye (left eye) received one drop of sterile saline (0.9% sodium chloride). Assessment of pupillary size was done at 30 minute intervals following instillation of neostigmine. The left eye of each rabbit acted as control for the right one.\nThe amount of neostigmine methylsulphate was calculated to be 0.1 mg/drop. Therefore, each rabbit's eye was instilled by 0.1 mg of sterile neostigmine methylsulphate. The sterile dropper for instilling neostigmine was used only once and then discarded. To prevent the drop of neostigmine from leaking out of the rabbit's eye, the lower eye lid of the rabbits was held out for at least 2-3 minutes in order to keep the drop inside the eye and allow for better absorption of the drug through the cornea.\n(§3) The pupil size of both the right and left eyes of each rabbit was measured at baseline in mms by using a plastic ruler. After instilling the neostigmine solution (right eye) or saline (left eye), the pupil size was measured again at 30 minute intervals following drug or saline instillation. One drop of neostimine was instilled daily for 7 days and signs of ocular inflammation were observed.\nThe mean values for the pupil sizes of the right eyes were recorded as well as those of the left eyes, separately. Paired t-test was used for comparison of data among the different groups on SPSS software. A probability value of <0.05 was considered to be significant."}, "[2]": {"system": "New Zealand White rabbits", "assay": "Ocular inflammation on daily instillation for 7 days in rabbits", "type": "in vivo", "settings": "one drop daily for 7 days, rabbit eye", "description": "as §1, §3"}, "[3]": {"system": "patients with probable or definite MG", "assay": "Ocular neostigmine drop test for ptosis in patients with probable or definite myasthenia gravis", "type": "in vivo, human", "description": "as §1, §2\nPatients with probable or definite MG were asked to sign informed consent approved by the appropriate Institutional Ethics Committees. Ptosis was recorded photographically, and pulse and blood pressure were also recorded prior to beginning the test. One drop of standard IV neostigmine solution (2.5 mg/ml) was instilled into each symptomatic eye of the patient. Fifteen minutes later, possible changes in ptosis were assessed. Pulse and blood pressure was recorded again and after another 15 minutes. At 30 minutes, the patient was evaluated also for possible changes in ptosis (documented by photography), obvious irritation of either eye and for report of discomfort.\nSix patients (3 males and 3 females) who presented with ptosis and/or ocular motility disturbance were enrolled in the study. Their ages ranged between 4.5 and 55 years (median=42 years, mean=36.4 years). […]"}}, "data": [{"smiles": "CN(C)C(=O)Oc1cccc([N+](C)(C)C)c1", "note": "[neostigmine, 3-(trimethylamino)phenyl N,N-dimethylcarbamate]", "values": [{"measurement": "pupil diameter, right eye, representative rabbit (FIG. 2)", "setting": "[1]; 1 week after daily instillation of 1 drop, last drop 24 hours previously", "value": 6.0, "unit": "mm"}, {"measurement": "pupil diameter, right eye, representative rabbit (FIG. 2)", "setting": "[1]; 30 mins post neostigmine, pre 6.0 mm", "value": 2.0, "unit": "mm"}, {"measurement": "mean [SD] pupillary size, right eye", "setting": "[1]; 30 minutes after one drop of 2.5 mg/ml solution (0.1 mg) in right eye, 30 rabbits", "value": 4.8, "unit": "mm"}, {"measurement": "pupil diameter, right eye, representative rabbit (FIG. 2)", "setting": "[1]; 60 mins post neostigmine, pre 6.0 mm", "value": 1.5, "unit": "mm"}, {"measurement": "mean [SD] pupillary size, right eye", "setting": "[1]; 60 minutes after one drop of 2.5 mg/ml solution (0.1 mg) in right eye", "value": 4.8, "unit": "mm"}, {"measurement": "ocular inflammation", "setting": "[2]", "value": "no ocular inflammation"}, {"measurement": "response of ptosis (palpebral fissure height)", "setting": "[3]; 3 patients with no prior treatment for MG (Patients 1, 2 and 5)", "value": "dramatic"}, {"measurement": "increase of the palpebral fissure height", "setting": "[3]; all 6 patients with MG, 30 minutes after instillation of one drop 2.5 mg/ml per symptomatic eye", "value": "at least 2 mm"}]}]}
